Test results taken from ChEMBL document CHEMBL5241092, “The antibacterial activity of fluoroquinolone derivatives: An update (2018-2021)” (2021).
Converted amounts (≈) assume the structure as drawn.

Columns and labels:
Format in all cases: functional
[1] = tested on: Yersinia pseudotuberculosis; experiment: Antibacterial activity against Yersinia pseudotuberculosis
Klebsiella pneumoniae = experiment: Antibacterial activity against Klebsiella pneumoniae
Pseudomonas aeruginosa = experiment: Antibacterial activity against Pseudomonas aeruginosa
Escherichia coli = experiment: Antibacterial activity against Escherichia coli
Listeria monocytogenes = experiment: Antibacterial activity against Listeria monocytogenes
[2] = tested on: Lactobacillus acidophilus; experiment: Antibacterial activity against Lactobacillus acidophilus
Staphylococcus aureus = experiment: Antibacterial activity against Staphylococcus aureus
Enterococcus faecalis = experiment: Antibacterial activity against Enterococcus faecalis
Bacillus cereus = experiment: Antibacterial activity against Bacillus cereus
Bacillus subtilis = experiment: Antibacterial activity against Bacillus subtilis
[3] = tested on: Staphylococcus epidermidis; experiment: Antibacterial activity against Staphylococcus epidermidis

Row | SMILES | MIC [1] [µg/mL] | MIC (Klebsiella pneumoniae) [µg/mL] | MIC (Pseudomonas aeruginosa) [µg/mL] | MIC (Escherichia coli) [µg/mL] | MIC (Listeria monocytogenes) [µg/mL] | MIC [2] [µg/mL] | MIC (Staphylococcus aureus) [µg/mL] | MIC (Enterococcus faecalis) [µg/mL] | MIC (Bacillus cereus) [µg/mL] | MIC (Bacillus subtilis) [µg/mL] | MIC [3] [µg/mL]
1 | COc1ccc(S(=O)(=O)N2CCC[C@@H]3CN(c4c(F)cc5c(=O)c(C(=O)O)cn(C6CC6)c5c4OC)C[C@@H]32)cc1 | < 2.42 | < 2.42 | < 2.42 | < 2.42 | < 2.42 | < 2.42 | < 2.42 | < 2.42 | – | – | –
2 | C=CCn1c(SCC(=O)N2CCN(c3cc4c(cc3F)c(=O)c(C(=O)O)cn4C3CC3)CC2)nnc1-c1ccccc1 | – | 1.42 (≈ 2.41 µM) | 1.42 (≈ 2.41 µM) | 1.42 (≈ 2.41 µM) | – | – | 1.42 (≈ 2.41 µM) | – | – | – | –
3 | COc1ccc(C(=O)N2CCC[C@@H]3CN(c4c(F)cc5c(=O)c(C(=O)O)cn(C6CC6)c5c4OC)C[C@@H]32)cc1 | < 1.23 | < 1.23 | < 1.23 | < 1.23 | ≤ 1.23 | < 1.23 | ≤ 1.23 | ≤ 1.23 | ≤ 1.23 | – | –
4 | COc1c(N2C[C@H]3CCCN(S(=O)(=O)c4ccc(Cl)cc4)[C@H]3C2)c(F)cc2c(=O)c(C(=O)O)cn(C3CC3)c12 | < 2.42 | < 2.42 | < 2.42 | < 2.42 | < 2.42 | < 2.42 | < 2.42 | < 2.42 | – | – | –
5 | COc1c(N2C[C@H]3CCCN(C(=O)c4ccc(F)cc4)[C@H]3C2)c(F)cc2c(=O)c(C(=O)O)cn(C3CC3)c12 | < 1.23 | < 1.23 | < 1.23 | < 1.23 | ≤ 1.23 | < 1.23 | ≤ 1.23 | ≤ 1.23 | ≤ 1.23 | – | –
6 | COc1c(N2C[C@H]3CCCN(Cc4ccc(F)cc4)[C@H]3C2)c(F)cc2c(=O)c(C(=O)O)cn(C3CC3)c12 | < 2.39 | < 2.39 | < 2.39 | < 2.39 | < 2.39 | < 2.39 | < 2.39 | < 2.39 | – | – | –
7 | COc1ccc(CN2CCC[C@@H]3CN(c4c(F)cc5c(=O)c(C(=O)O)cn(C6CC6)c5c4OC)C[C@@H]32)cc1 | < 2.39 | < 2.39 | < 2.39 | < 2.39 | < 2.39 | < 2.39 | < 2.39 | < 2.39 | – | – | –
8 | O=C(O)c1cn(-c2ccc(F)cc2)c2cc(N3CCN(C/C(=N/O)c4ccccc4)CC3)c(F)cc2c1=O | – | – | – | – | – | – | < 0.125 | – | – | < 0.125 | < 0.125
9 | O=C(CSC(=S)N1CCN(c2cc3c(cc2F)c(=O)c(C(=O)O)cn3C2CC2)CC1)Nc1cccc(Cl)c1 | – | – | 0.195 (≈ 0.339 µM) | 0.024 (≈ 0.0417 µM) | – | – | – | – | – | – | 0.024 (≈ 0.0417 µM)
10 | CCOc1cc(OCC)nc(/N=N/N2CCN(c3c(F)cc4c(=O)c(C(=O)C(C(C)=O)C(=O)OC)cn(C5CC5)c4c3OC)CC2)n1 (centres undefined) | – | – | – | – | – | – | 0.015 (≈ 0.0229 µM) | – | – | 0.015 (≈ 0.0229 µM) | 0.015 (≈ 0.0229 µM)
11 | COc1c(N2C[C@H]3CCCN(S(=O)(=O)c4ccccc4)[C@H]3C2)c(F)cc2c(=O)c(C(=O)O)cn(C3CC3)c12 | < 2.42 | < 2.42 | < 2.42 | < 2.42 | < 2.42 | < 2.42 | < 2.42 | < 2.42 | – | – | –
12 | COc1c(N2C[C@H]3CCCN(S(=O)(=O)c4ccc(C)cc4)[C@H]3C2)c(F)cc2c(=O)c(C(=O)O)cn(C3CC3)c12 | < 2.42 | < 2.42 | < 2.42 | < 2.42 | < 2.42 | < 2.42 | < 2.42 | < 2.42 | – | – | –
13 | O=C(O)c1cn(C2CC2)c2cc(N3CCN(Cn4nc(-c5ccccn5)oc4=S)CC3)c(F)cc2c1=O | – | – | 0.031 (≈ 0.0593 µM) | 0.031 (≈ 0.0593 µM) | – | – | 0.031 (≈ 0.0593 µM) | – | – | 0.031 (≈ 0.0593 µM) | –
14 | CCn1cc(C(=O)O)c(=O)c2cc(F)c(N3CCN(CCC(=O)Nc4ccc(/C(C)=N\OC)cc4)CC3)cc21 | – | > 50 | – | – | – | – | – | – | – | – | –
15 | COc1c(N2C[C@H]3CCCN(S(=O)(=O)c4ccc(Br)cc4)[C@H]3C2)c(F)cc2c(=O)c(C(=O)O)cn(C3CC3)c12 | < 2.42 | < 2.42 | < 2.42 | < 2.42 | < 2.42 | < 2.42 | < 2.42 | < 2.42 | – | – | –
16 | C=Cn1c(SCC(=O)N2CCN(c3cc4c(cc3F)c(=O)c(C(=O)O)cn4C3CC3)CC2)nnc1-c1ccccc1 | – | 1.7 (≈ 2.96 µM) | 1.42 (≈ 2.47 µM) | 1.7 (≈ 2.96 µM) | – | – | 1.7 (≈ 2.96 µM) | – | – | – | –
17 | COc1c(N2C[C@@H]3CCCN[C@@H]3C2)c(F)cc2c(=O)c(C(=O)O)cn(C3CC3)c12 [MOXIFLOXACIN] | – | – | – | – | < 0.6 | – | – | < 0.6 | < 0.6 | – | –
